Measurements taken from the NIST ThermoML archive (doi:10.1016/j.jct.2016.10.034).
± gives the expanded uncertainty stated by the source.

Test: xn = mol fraction of the nth substance listed
Conditions: 100 kPa, Liquid; for mass density: Vibrating tube method; for viscosity: Falling or rolling sphere viscometry

CC[N+]1(C)CCCC1.O=C([O-])CO [1-ethyl-1-methylpyrrolidinium glycolate] + O
Conditions | mass density [kg/m3] | viscosity [mPa·s]
323.15 K, x1 = 0.0541 | 1043.7 ± 1 | –
323.15 K, x1 = 0.1293 | 1083.3 ± 1 | –
323.15 K, x1 = 0.2024 | 1100.4 ± 1 | –
323.15 K, x1 = 0.2905 | 1109.6 ± 1 | –
323.15 K, x1 = 0.3464 | 1112.6 ± 1.1 | –
323.15 K, x1 = 0.4258 | 1115.2 ± 1.1 | –
323.15 K, x1 = 0.5357 | 1116.9 ± 1.2 | –
323.15 K, x1 = 0.6086 | 1117.5 ± 1.3 | –
323.15 K, x1 = 0.729 | 1118 ± 1.6 | –
323.15 K, x1 = 0.825 | 1117.9 ± 1.8 | –
323.15 K, x1 = 0.8839 | 1117.7 ± 2 | –
328.15 K, x1 = 0.0541 | 1040.6 ± 1 | –
328.15 K, x1 = 0.1293 | 1079.8 ± 1 | 4.34 ± 0.44
328.15 K, x1 = 0.2024 | 1096.8 ± 1 | 8.55 ± 0.86
328.15 K, x1 = 0.2905 | 1106.1 ± 1 | 13.9 ± 1.4
328.15 K, x1 = 0.3464 | 1109.2 ± 1.1 | 17.8 ± 1.8
328.15 K, x1 = 0.4258 | 1111.8 ± 1.1 | 23.3 ± 2.3
328.15 K, x1 = 0.5357 | 1113.6 ± 1.2 | 31.4 ± 3.2
328.15 K, x1 = 0.6086 | 1114.2 ± 1.3 | 37.2 ± 3.8
328.15 K, x1 = 0.729 | 1114.8 ± 1.6 | 46.8 ± 4.7
328.15 K, x1 = 0.825 | 1114.6 ± 1.8 | 55.7 ± 5.6
328.15 K, x1 = 0.8839 | 1114.5 ± 2 | 61.9 ± 6.3
333.15 K, x1 = 0.0541 | 1037.5 ± 1 | –
333.15 K, x1 = 0.1293 | 1076.2 ± 1 | 4.12 ± 0.41
333.15 K, x1 = 0.2024 | 1093.3 ± 1 | 7.54 ± 0.76
333.15 K, x1 = 0.2905 | 1102.6 ± 1 | 12.5 ± 1.3
333.15 K, x1 = 0.3464 | 1105.7 ± 1.1 | 15.5 ± 1.6
333.15 K, x1 = 0.4258 | 1108.5 ± 1.1 | 20 ± 2
333.15 K, x1 = 0.5357 | 1110.4 ± 1.2 | 26.5 ± 2.7
333.15 K, x1 = 0.6086 | 1111 ± 1.3 | 31.1 ± 3.1
333.15 K, x1 = 0.729 | 1111.5 ± 1.6 | 38.8 ± 3.9
333.15 K, x1 = 0.825 | 1111.4 ± 1.8 | 45.5 ± 4.6
333.15 K, x1 = 0.8839 | 1111.3 ± 2 | 49.9 ± 5.1
338.15 K, x1 = 0.0541 | 1034.3 ± 1 | –
338.15 K, x1 = 0.1293 | 1072.7 ± 1 | 3.87 ± 0.77
338.15 K, x1 = 0.2024 | 1089.7 ± 1 | 6.81 ± 0.68
338.15 K, x1 = 0.2905 | 1099.2 ± 1 | 10.6 ± 1.1
338.15 K, x1 = 0.3464 | 1102.4 ± 1.1 | 13.2 ± 1.3
338.15 K, x1 = 0.4258 | 1105.1 ± 1.1 | 16.8 ± 1.7
338.15 K, x1 = 0.5357 | 1107.1 ± 1.2 | 22.4 ± 2.3
338.15 K, x1 = 0.6086 | 1107.7 ± 1.3 | 26.1 ± 2.6
338.15 K, x1 = 0.729 | 1108.3 ± 1.6 | 32.6 ± 3.3
338.15 K, x1 = 0.825 | 1108.3 ± 1.8 | 38.1 ± 3.9
338.15 K, x1 = 0.8839 | 1108.2 ± 2 | 41.6 ± 4.2
343.15 K, x1 = 0.0541 | 1031.1 ± 1 | –
343.15 K, x1 = 0.1293 | 1069.1 ± 1 | 3.58 ± 0.72
343.15 K, x1 = 0.2024 | 1086.1 ± 1 | 5.96 ± 0.6
343.15 K, x1 = 0.2905 | 1095.7 ± 1 | 9.03 ± 0.91
343.15 K, x1 = 0.3464 | 1099 ± 1.1 | 11.2 ± 1.1
343.15 K, x1 = 0.4258 | 1101.8 ± 1.1 | 14.5 ± 1.5
343.15 K, x1 = 0.5357 | 1103.9 ± 1.2 | 19.2 ± 1.9
343.15 K, x1 = 0.6086 | 1104.6 ± 1.3 | 22.4 ± 2.3
343.15 K, x1 = 0.729 | 1105.2 ± 1.5 | 27.9 ± 2.8
343.15 K, x1 = 0.825 | 1105.1 ± 1.8 | 32.4 ± 3.3
343.15 K, x1 = 0.8839 | 1105.1 ± 2 | 35.3 ± 3.6
348.15 K, x1 = 0.0541 | 1027.6 ± 1.1 | –
348.15 K, x1 = 0.1293 | 1065.5 ± 1.1 | 3.55 ± 1.1
348.15 K, x1 = 0.2024 | 1082.6 ± 1 | 5.64 ± 0.57
348.15 K, x1 = 0.2905 | 1092.9 ± 1 | 7.83 ± 0.79
348.15 K, x1 = 0.3464 | 1095.6 ± 1.1 | 9.71 ± 0.98
348.15 K, x1 = 0.4258 | 1098.6 ± 1.1 | 12.5 ± 1.3
348.15 K, x1 = 0.5357 | 1100.7 ± 1.2 | 16.6 ± 1.7
348.15 K, x1 = 0.6086 | 1101.4 ± 1.3 | 19.3 ± 1.9
348.15 K, x1 = 0.729 | 1102.1 ± 1.5 | 24 ± 2.4
348.15 K, x1 = 0.825 | 1102 ± 1.8 | 27.7 ± 2.8
348.15 K, x1 = 0.8839 | 1102 ± 2 | 30.1 ± 3.1
